Experimental data published in US20220386635A1, “NITRITE REPLACEMENT (CURING AIDS) CONTAINING NATURAL INGREDIENTS” (KEMIN INDUSTRIES, INC., priority 2021, published 2022).
Several values for one entry are separate records, joined by “and”; a condition that tells them apart may be missing. Identical values can stand only once. Like-named read-outs stand apart in the source and are kept apart here. Marks after values point to notes of the source that are not given here.

Assays:
[1] = Color evaluation (L*a*b*, C*, hue) of sausages with black carrot extract, Example 2; settings: 50 days at 7° C., dark or illuminated last 72 h
Listeria monocytogenes [2] = experiment: Listeria monocytogenes challenge test, Example 5 experiment 1; assay type: cell-based
[3] = test system: C. botulinum spores (Type A: NCTC 7272, Type E: LFMFP-CB 707 and Type E: LFMFP-CB 666); assay type: cell-based, Clostridium botulinum; settings: 7° C.; for Anaerobic count: Blend 0.4%, Repl 1 and Repl 2
botulinum toxin = test system: botulinum toxin; set-up: species or system Clostridium botulinum
Listeria monocytogenes [4] = experiment: Listeria monocytogenes challenge study, Example 6; assay type: cell-based; settings: after 3 weeks at 7° C.; inoculum 2.6 log10CFU/g
C. botulinum spores = assay type: cell-based, Clostridium botulinum
[5] = Lipid oxidation (TBARS) in cooked sausages; settings: 7° C., shelf life of 8 weeks; threshold for off-odor 0.5 ppm
[6] = Physico-chemical parameters of low salt emulsified cooked pork sausages, Example 6
[7] = low salt (1.2%) sausage, dosages per Table 23
[8] = low salt sausage, dosages per Table 23

SMILES: O=NO [Positive control, sodium nitrite]
- Color stability during storage [1]: faded drastically
- L. monocytogenes count (Listeria monocytogenes [2]; after 8 weeks at 7° C., inoculum 300 CFU/g): 7 log10CFU/g
- time to 1 log increase of L. monocytogenes (Listeria monocytogenes [2]; positive control with nitrite, 7° C.): 14 days
- growth of C. botulinum ([3]; 8 weeks, 0.4% of the invented blend): no growth
- Anaerobic count ([3]; storage time 0 days): 3.08 log10CFU/g and 2.73 log10CFU/g
- Anaerobic count ([3]; storage time 14 days): 2.75 log10CFU/g and 2.70 log10CFU/g
- Anaerobic count ([3]; storage time 28 days): 2.61 log10CFU/g and 2.62 log10CFU/g
- Anaerobic count ([3]; storage time 42 days): 2.67 log10CFU/g and 2.46 log10CFU/g
- Anaerobic count ([3]; storage time 56 days): 2.49 log10CFU/g and 2.43 log10CFU/g
- Number of samples in which botulinum toxin was detected to total analyzed samples (botulinum toxin): 0/2
- L. monocytogenes count (Listeria monocytogenes [4]): more than 7 log10CFU/g
- Clostridium botulinum outgrowth (C. botulinum spores; 7° C., 8 weeks, significant growth = >0.5 log10CFU/g): no growth of C. botulinum
- Anaerobic count (average ± standard deviation, n = 2) (C. botulinum spores; storage time 0 days at 7° C., dosages per Table 23): 3.7 ± 0.1 log10CFU/g
- Anaerobic count (average ± standard deviation, n = 2) (C. botulinum spores; storage time 14 days at 7° C., * significant outgrowth (>0.5 log10CFU/g) in at least one replicate): 2.3 ± 0.3 log10CFU/g
- Anaerobic count (average ± standard deviation, n = 2) (C. botulinum spores; storage time 24 days at 7° C., * significant outgrowth (>0.5 log10CFU/g) in at least one replicate): 2.4 ± 0.0 log10CFU/g
- Anaerobic count (average ± standard deviation, n = 2) (C. botulinum spores; storage time 42 days at 7° C., * significant outgrowth (>0.5 log10CFU/g) in at least one replicate): 2.2 ± 0.1 log10CFU/g
- Anaerobic count (average ± standard deviation, n = 2) (C. botulinum spores; storage time 56 days at 7° C., * significant outgrowth (>0.5 log10CFU/g) in at least one replicate): 2.2 ± 0.0 log10CFU/g
- Lipid oxidation (TBARS values) [5]: maintain low TBARS values
- aw ([6]; 25° C., low salt sausage, dosages per Table 23): 0.978
- Salt content ([6]; calculated based on sodium content, low salt sausage): 1.55%
- Salt content in aqueous phase ([6]; calculated from salt content and moisture content): 2.9%
- pH of cooked meat [6, 7]: 6.21^a
- pH of meat batter [6, 7]: 5.87^ab
- Acetic acid content [6, 8]: 0.008%
- Moisture content [6, 8]: 52.3%
